{"source": "the supplement of paper PMC11208160", "data": [{"experiment": "recombinant barcode read abundance after kanamycin selection (control-corrected) (log10(CPM+1)); higher = more efficient recombination; sequences stand for … in AGTGCAGAGAAAATCGGCCAGTTTTCTCTGCCTGCAGTCCGCATGCCGT…AGATTTATGCAGCGGACTGCCTTTCTCCCAAAGTGATAAACCGGACAGTATCATGGACCGGTTTTCCCGGTAATCCGTATTTGCAAGGTTGGTTTCACT; site = the 11-nt target", "how_it_was_run": "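Pooled E. coli screen pairing targets with IS621 bridge RNA target-binding loops. Each oligo (promoter, target, barcode, J23119-driven first 104 bridge RNA bases) was Gibson-cloned into a vector with the remaining 73 bp and T7-inducible recombinase, then co-electroporated with a donor plasmid. Two replicates each were plated on chloramphenicol/ampicillin LB agar (control) or chloramphenicol/ampicillin/kanamycin with 0.1 mM IPTG. Recombination efficiency is recombinant-junction barcode counts as CPM, averaged, control-corrected, reported as log10(CPM+1).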", "values": [{"sequence": "TAGGAGACTTGGGTTCTAACCTGTTGCGT (site TAGGAAACTAC)", "recombinant barcode read abundance (log10)": 1.42}, {"sequence": "TAGGAGACTTGGGTTCTAACCTGTTGCGT (site TAGGACACTAC)", "recombinant barcode read abundance (log10)": 0.642}, {"sequence": "TAGGAGACTTGGGTTCTAACCTGTTGCGT (site TAGGAGACTAC)", "recombinant barcode read abundance (log10)": 2.56}, {"sequence": "TAGGAGACTTGGGTTCTAACCTGTTGCGT (site TAGGATACTAC)", "recombinant barcode read abundance (log10)": 0.233}, {"sequence": "TAGGAGCCTTGGGTTCTAACCTGTTGCGT (site TACGAACCTAC)", "recombinant barcode read abundance (log10)": 0.323}, {"sequence": "TAGGAGCCTTGGGTTCTAACCTGTTGCGT (site TAGGAGCCTAC)", "recombinant barcode read abundance (log10)": 3.27}, {"sequence": "TAGGCCACTTGGGTTCTAACCTGTTGCCT (site TAGGCCACTAA)", "recombinant barcode read abundance (log10)": 0.0204}, {"sequence": "TAGGCCACTTGGGTTCTAACCTGTTGCCT (site TAGGCCACTAC)", "recombinant barcode read abundance (log10)": 0.122}, {"sequence": "TAGGCCACTTGGGTTCTAACCTGTTGCCT (site TAGGCCACTAG)", "recombinant barcode read abundance (log10)": 0.592}, {"sequence": "TAGGCCACTTGGGTTCTAACCTGTTGCCT (site TAGGCCACTAT)", "recombinant barcode read abundance (log10)": 0}, {"sequence": "TAGGCGCCTTGGGTTCTAACCTGTTGCAT (site TAGGCGCCTAA)", "recombinant barcode read abundance (log10)": 4.17}, {"sequence": "TAGGCGCCTTGGGTTCTAACCTGTTGCAT (site TAGGCGCCTAC)", "recombinant barcode read abundance (log10)": 0.723}, {"sequence": "TAGGCGCCTTGGGTTCTAACCTGTTGCAT (site TAGGCGCCTAG)", "recombinant barcode read abundance (log10)": 0.0713}, {"sequence": "TAGGCGCCTTGGGTTCTAACCTGTTGCAT (site TAGGCGCCTAT)", "recombinant barcode read abundance (log10)": 0.299}, {"sequence": "TAGGCGCCTTGGGTTCTAACCTGTTGCGT (site TAGGCGCCTAA)", "recombinant barcode read abundance (log10)": 0.0787}, {"sequence": "TAGGCGCCTTGGGTTCTAACCTGTTGCGT (site TAGGCGCCTAC)", "recombinant barcode read abundance (log10)": 0.735}, {"sequence": "TAGGCGCCTTGGGTTCTAACCTGTTGCGT (site TAGGCGCCTAG)", "recombinant barcode read abundance (log10)": 0.0904}, {"sequence": "TAGGCGCCTTGGGTTCTAACCTGTTGCGT (site TAGGCGCCTAT)", "recombinant barcode read abundance (log10)": 0.249}, {"sequence": "TAGGCGGCTTGGGTTCTAACCTGTTGCGT (site AGCTGTCCTCT)", "recombinant barcode read abundance (log10)": 0.0593}, {"sequence": "TAGGCGGCTTGGGTTCTAACCTGTTGCGT (site TAGGCGGCTAC)", "recombinant barcode read abundance (log10)": 2.63}, {"sequence": "TAGGCTCCTTGGGTTCTAACCTGTTGCAA (site TAGGCTCCTAT)", "recombinant barcode read abundance (log10)": 0.309}, {"sequence": "TAGGCTCCTTGGGTTCTAACCTGTTGCAA (site TAGGCTCCTCT)", "recombinant barcode read abundance (log10)": 0.0906}, {"sequence": "TAGGCTCCTTGGGTTCTAACCTGTTGCAA (site TAGGCTCCTGT)", "recombinant barcode read abundance (log10)": 0}, {"sequence": "TAGGCTCCTTGGGTTCTAACCTGTTGCAA (site TAGGCTCCTTT)", "recombinant barcode read abundance (log10)": 1.41}, {"sequence": "TAGGCTCCTTGGGTTCTAACCTGTTGCCG (site TAGCCTACTCG)", "recombinant barcode read abundance (log10)": 0.00951}, {"sequence": "TAGGCTCCTTGGGTTCTAACCTGTTGCCG (site TAGGCTCCTCG)", "recombinant barcode read abundance (log10)": 0.412}, {"sequence": "TAGGCTCCTTGGGTTCTAACCTGTTGCCT (site TAAGATCCTAG)", "recombinant barcode read abundance (log10)": 0.205}, {"sequence": "TAGGCTCCTTGGGTTCTAACCTGTTGCCT (site TAGGCTCCTAG)", "recombinant barcode read abundance (log10)": 0}, {"sequence": "TAGGGGACTTGGGTTCTAACCTGTTGCAA (site CGTCCTGCTAA)", "recombinant barcode read abundance (log10)": 0.0997}, {"sequence": "TAGGGGACTTGGGTTCTAACCTGTTGCAA (site TAGGGGACTTT)", "recombinant barcode read abundance (log10)": 2.27}, {"sequence": "TAGGTATCTTGGGTTCTAACCTGTTGCAG (site CCTTGTGCTAC)", "recombinant barcode read abundance (log10)": 0.156}, {"sequence": "TAGGTATCTTGGGTTCTAACCTGTTGCAG (site TAGGTATCTCT)", "recombinant barcode read abundance (log10)": 2.01}, {"sequence": "TAGGTCCCTTGGGTTCTAACCTGTTGCAT (site TAGGTACCTAT)", "recombinant barcode read abundance (log10)": 0.389}, {"sequence": "TAGGTCCCTTGGGTTCTAACCTGTTGCAT (site TAGGTCCCTAT)", "recombinant barcode read abundance (log10)": 1.85}, {"sequence": "TAGGTCCCTTGGGTTCTAACCTGTTGCAT (site TAGGTGCCTAT)", "recombinant barcode read abundance (log10)": 0.0967}, {"sequence": "TAGGTCCCTTGGGTTCTAACCTGTTGCAT (site TAGGTTCCTAT)", "recombinant barcode read abundance (log10)": 0.228}, {"sequence": "TAGGTCCCTTGGGTTCTAACCTGTTGCGA (site AAGGTCCCTCC)", "recombinant barcode read abundance (log10)": 0.0896}, {"sequence": "TAGGTCCCTTGGGTTCTAACCTGTTGCGA (site TAGGTCCCTTC)", "recombinant barcode read abundance (log10)": 3.11}, {"sequence": "TAGTAAGCTTGGGTTCTAACCTGTTGCCT (site TAGTAAGCTAG)", "recombinant barcode read abundance (log10)": 1.23}, {"sequence": "TAGTAAGCTTGGGTTCTAACCTGTTGCCT (site TAGTATCCTAG)", "recombinant barcode read abundance (log10)": 0.088}, {"sequence": "TAGTACCCTTGGGTTCTAACCTGTTGCAA (site TAGTACCCTAT)", "recombinant barcode read abundance (log10)": 0.0814}, {"sequence": "TAGTACCCTTGGGTTCTAACCTGTTGCAA (site TAGTACCCTCT)", "recombinant barcode read abundance (log10)": 0.104}, {"sequence": "TAGTACCCTTGGGTTCTAACCTGTTGCAA (site TAGTACCCTGT)", "recombinant barcode read abundance (log10)": 0.0816}, {"sequence": "TAGTACCCTTGGGTTCTAACCTGTTGCAA (site TAGTACCCTTT)", "recombinant barcode read abundance (log10)": 0.801}, {"sequence": "TAGTACGCTTGGGTTCTAACCTGTTGCAG (site TAGTAAGCTCA)", "recombinant barcode read abundance (log10)": 0.12}, {"sequence": "TAGTACGCTTGGGTTCTAACCTGTTGCAG (site TAGTACGCTCT)", "recombinant barcode read abundance (log10)": 1.8}, {"sequence": "TAGTACGCTTGGGTTCTAACCTGTTGCTT (site ACACGGCCTCG)", "recombinant barcode read abundance (log10)": 0.331}, {"sequence": "TAGTACGCTTGGGTTCTAACCTGTTGCTT (site TAGTACGCTAA)", "recombinant barcode read abundance (log10)": 0.848}, {"sequence": "TAGTACTCTTGGGTTCTAACCTGTTGCTG (site TAGTACTCTAA)", "recombinant barcode read abundance (log10)": 0.244}, {"sequence": "TAGTACTCTTGGGTTCTAACCTGTTGCTG (site TAGTACTCTCA)", "recombinant barcode read abundance (log10)": 1.06}, {"sequence": "TAGTACTCTTGGGTTCTAACCTGTTGCTG (site TAGTACTCTGA)", "recombinant barcode read abundance (log10)": 0.053}, {"sequence": "TAGTACTCTTGGGTTCTAACCTGTTGCTG (site TAGTACTCTTA)", "recombinant barcode read abundance (log10)": 0.0609}, {"sequence": "TAGTAGTCTTGGGTTCTAACCTGTTGCAT (site TAGTAGTCTAA)", "recombinant barcode read abundance (log10)": 0.503}, {"sequence": "TAGTAGTCTTGGGTTCTAACCTGTTGCAT (site TAGTAGTCTAC)", "recombinant barcode read abundance (log10)": 1.14}, {"sequence": "TAGTAGTCTTGGGTTCTAACCTGTTGCAT (site TAGTAGTCTAG)", "recombinant barcode read abundance (log10)": 0.596}, {"sequence": "TAGTAGTCTTGGGTTCTAACCTGTTGCAT (site TAGTAGTCTAT)", "recombinant barcode read abundance (log10)": 2.12}, {"sequence": "TAGTAGTCTTGGGTTCTAACCTGTTGCTT (site TAGTAGTCTAA)", "recombinant barcode read abundance (log10)": 1.55}, {"sequence": "TAGTAGTCTTGGGTTCTAACCTGTTGCTT (site TAGTAGTCTAC)", "recombinant barcode read abundance (log10)": 0.635}, {"sequence": "TAGTAGTCTTGGGTTCTAACCTGTTGCTT (site TAGTAGTCTAG)", "recombinant barcode read abundance (log10)": 0.659}, {"sequence": "TAGTAGTCTTGGGTTCTAACCTGTTGCTT (site TAGTAGTCTAT)", "recombinant barcode read abundance (log10)": 1.15}, {"sequence": "TAGTGATCTTGGGTTCTAACCTGTTGCCT (site TAATGATCTAG)", "recombinant barcode read abundance (log10)": 0}, {"sequence": "TAGTGATCTTGGGTTCTAACCTGTTGCCT (site TACTGATCTAG)", "recombinant barcode read abundance (log10)": 0.072}, {"sequence": "TAGTGATCTTGGGTTCTAACCTGTTGCCT (site TAGTGATCTAG)", "recombinant barcode read abundance (log10)": 0.783}, {"sequence": "TAGTGATCTTGGGTTCTAACCTGTTGCCT (site TATTGATCTAG)", "recombinant barcode read abundance (log10)": 0.0361}, {"sequence": "TAGTGGCCTTGGGTTCTAACCTGTTGCTA (site CCTGACTCTAT)", "recombinant barcode read abundance (log10)": 0}, {"sequence": "TAGTGGCCTTGGGTTCTAACCTGTTGCTA (site TAGTGGCCTTA)", "recombinant barcode read abundance (log10)": 0.132}]}]}
